Test results published in patent US20150175530A1, “ANTIBACTERIAL AGENTS” (priority 2012, published 2015).
≈ marks a conversion by molar mass, not a printed value. Like-named read-outs stand apart in the source and are kept apart here.

Experiments:
[1] = test system: bacterial isolates (clinical isolates and ATCC quality control strains); test: Minimum Inhibitory Concentrations (MICs) by broth microdilution (CLSI susceptibility testing); format: cell-based
Experimental: Bacterial isolates were cultivated from −70° C. frozen stocks by overnight passages at 35° C. in ambient air on Mueller-Hinton agar (Beckton Dickinson, Franklin Lakes, N.J.). Clinical isolates tested were obtained from various geographically diverse hospitals in the US and abroad (Focus Diagnostics, Herndon, Va. and JMI, North Liberty, Iowa). Quality control strains were from the American Type Culture Collection (ATCC; Rockville, Md.).
Minimum Inhibitory Concentrations (MICs) were determined by the broth microdilution method in accordance with the Clinical and Laboratory Standards Institute (CLSI) guidelines. In brief, organism suspensions were adjusted to a 0.5 McFarland standard to yield a final inoculum between 3×10^5 and 7×10^5 colony-forming units (CFU)/mL. Drug dilutions and inocula were made in sterile, cation adjusted Mueller-Hinton Broth (Beckton Dickinson). An inoculum volume of 100 μL was added to wells containing 100 μL of broth with 2-fold serial dilutions of drug. All inoculated microdilution trays were incubated in ambient air at 35° C. for 18-24 h. Following incubation, the lowest concentration of the drug that prevented visible growth (OD600 nm<0.05) was recorded as the MIC. Performance of the assay was monitored by the use of laboratory quality-control strains and levofloxacin, a compound with a defined MIC spectrum, in accordance with CLSI guidelines.

[2] = test system: 3 P. aeruginosa strains (APAE001, APAE002, APAE006); test: Protein binding: fold change in MIC in the presence of 2% HSA and 0.05% AGP, Geomean of 3 strains; format: cell-based, Pseudomonas aeruginosa; conditions: MIC in the presence of 2% HSA and 0.05% AGP divided by MIC in the absence; Geomean of 3 P. aeruginosa strains (APAE001, APAE002, APAE006)
Experimental: The effect of human serum albumin (HSA) and α-1-acid glycoprotein (AGP) from human plasma, which are known to nonspecifically bind to certain antibiotics and thereby reduce their activity (Banéres-Roquet et al. 2009 “Use of a Surface Plasmon Resonance Method to Investigate Antibiotic and Plasma Protein Interactions” Antimicrob. Agents and Chemother. 53(4):1528-1531), was assessed against 3 P. aeruginosa strains (APAE001, APAE002, APAE006). APAE001 is Pseudomonas aeruginosa ATCC27853; APAE002 is a wildtype lab strain of Pseudomonas aeruginosa known as PAM1020 or PA01. APAE006 is a strain of […]/PA01 with efflux deletions: delta mexAB-oprM::CM delta CD-oprJ::Gm delta mexEF-oprN::omega Hg. Lomovskaya, 0 et al. 1999. Use of a Genetic Approach To Evaluate the Consequences of Inhibition of Efflux Pumps in P aeruginosa. Antimicrob. Agents Chemother. 43: 1340-1346.
The standard procedure described in Susceptibility Testing was utilized with one adjustment, specifically 2% HSA and 0.05% AGP were added to the cation adjusted Mueller-Hinton Broth. The MIC for each strain of interest was then assessed in the presence and absence of HSA/AGP. Following MIC determination, the fold change in MIC was determined for each individual strain by dividing the MIC in the presence of HSA/AGP by the MIC in the absence of HSA/AGP. The protein binding Geomean was then calculated using these 3 values.

[3] = APAE1096 is a clinical isolate, broth microdilution, read-out: Minimum Inhibitory Concentrations (MICs) APAE1096
[4] = Pseudomonas aeruginosa, APAE002 is a wildtype lab strain of Pseudomonas aeruginosa known as PAM1020 or PA01, broth microdilution, read-out: Minimum Inhibitory Concentrations (MICs) APAE002
[5] = Pseudomonas aeruginosa, ATCC27853, APAE001 is Pseudomonas aeruginosa ATCC27853, broth microdilution, read-out: Minimum Inhibitory Concentrations (MICs) APAE001

CC(C)(NCc1c[nH]cn1)[C@H](NC(=O)c1ccc(C#CC#CCCO)cc1)C(=O)NO [Compound 13, (S)—N-(3-((1H-imidazol-4-yl)methylamino)-1-(hydroxyamino)-3-methyl-1-oxobutan-2-yl)-4-(6-hydroxyhexa-1,3-diynyl)benzamide]
MIC [1, 3]: 1 to 8 µg/mL (≈ 2.36 to 18.9 µM)
MIC [1, 4]: 1 to 8 µg/mL (≈ 2.36 to 18.9 µM)
MIC [1, 5]: < 1 µg/mL
Protein Binding PB (Geomean of fold change in MIC) [2]: 1.4

CC(C)(N)[C@H](NC(=O)c1ccc(C#CC#C[C@@H](O)CCO)cc1)C(=O)NO [Compound 54, N—((S)-3-amino-1-(hydroxyamino)-3-methyl-1-oxobutan-2-yl)-4-((S)-5,7-dihydroxyhepta-1,3-diyn-1-yl)benzamide]
MIC [1, 3]: 8 to 16 µg/mL (≈ 21.4 to 42.8 µM)
MIC [1, 4]: < 1 µg/mL
MIC [1, 5]: < 1 µg/mL
Protein Binding PB (Geomean of fold change in MIC) [2]: 2.0

C[C@H](O)C#CC#Cc1ccc(C(=O)N[C@H](C(=O)NO)C(C)(C)N)cc1 [Compound 14, N—((S)-3-amino-1-(hydroxyamino)-3-methyl-1-oxobutan-2-yl)-4-((S)-5-hydroxyhexa-1,3-diynyl)benzamide]
MIC [1, 3]: 1 to 8 µg/mL (≈ 2.91 to 23.3 µM)
MIC [1, 4]: < 1 µg/mL
MIC [1, 5]: < 1 µg/mL
Protein Binding PB (Geomean of fold change in MIC) [2]: 3.4

CC(C)(N)[C@H](NC(=O)c1ccc(C#CCCO)cc1)C(=O)NO [Compound 8, (S)—N-(3-amino-1-(hydroxyamino)-3-methyl-1-oxobutan-2-yl)-4-(4-hydroxybut-1-ynyl)benzamide]
MIC [1, 3]: 8 to 16 µg/mL (≈ 25.1 to 50.1 µM)
MIC [1, 4]: 1 to 8 µg/mL (≈ 3.13 to 25.1 µM)
MIC [1, 5]: 1 to 8 µg/mL (≈ 3.13 to 25.1 µM)
Protein Binding PB (Geomean of fold change in MIC) [2]: 0.9

C[C@@H](N)[C@H](NC(=O)c1ccc(C#CC#CCCO)cc1)C(=O)NO [Compound 35, N-((2S,3R)-3-amino-1-(hydroxyamino)-1-oxobutan-2-yl)-4-(6-hydroxyhexa-1,3-diyn-1-yl)benzamide]
MIC [1, 3]: 1 to 8 µg/mL (≈ 3.04 to 24.3 µM)
MIC [1, 4]: < 1 µg/mL
MIC [1, 5]: < 1 µg/mL
Protein Binding PB (Geomean of fold change in MIC) [2]: 2.0

CC(C)(N)[C@H](NC(=O)c1ccc(C#CC#C[C@H]2CC[C@](O)(CO)CC2)cc1)C(=O)NO [Compound 33B, N—((S)-3-amino-1-(hydroxyamino)-3-methyl-1-oxobutan-2-yl)-4-(((1R,4S)-4-hydroxy-4-(hydroxymethyl)cyclohexyl)buta-1,3-diynyl)benzamide]
MIC [1, 3]: 1 to 8 µg/mL (≈ 2.34 to 18.7 µM)
MIC [1, 4]: 1 to 8 µg/mL (≈ 2.34 to 18.7 µM)
MIC [1, 5]: < 1 µg/mL
Protein Binding PB (Geomean of fold change in MIC) [2]: 5.1

COC(C#CC#Cc1ccc(C(=O)N[C@H](C(=O)NO)C(C)(C)N)cc1)CO (stereo partly drawn) [Compound 47, N—((S)-3-amino-1-(hydroxyamino)-3-methyl-1-oxobutan-2-yl)-4-(6-hydroxy-5-methoxyhexa-1,3-diyn-1-yl)benzamide]
MIC ([1]; Pseudomonas aeruginosa, ATCC27853, read-out: Minimum Inhibitory Concentrations (MICs) APAE001): < 1 µg/mL
MIC ([1]; Pseudomonas aeruginosa, read-out: Minimum Inhibitory Concentrations (MICs) APAE002): < 1 µg/mL
MIC ([1]; read-out: Minimum Inhibitory Concentrations (MICs) APAE1096): 1 to 8 µg/mL (≈ 2.68 to 21.4 µM)
Protein Binding PB (Geomean of fold change in MIC) [2]: 2.6

C[C@H](O)C#CC#Cc1ccc(C(=O)N[C@H](C(=O)NO)[C@@H](C)O)cc1 [Compound 42, N-((2S,3R)-3-hydroxy-1-(hydroxyamino)-1-oxobutan-2-yl)-4-((S)-5-hydroxyhexa-1,3-diyn-1-yl)benzamide]
MIC [1, 3]: 8 to 16 µg/mL (≈ 24.2 to 48.4 µM)
MIC [1, 4]: 1 to 8 µg/mL (≈ 3.03 to 24.2 µM)
MIC [1, 5]: 1 to 8 µg/mL (≈ 3.03 to 24.2 µM)
Protein Binding PB (Geomean of fold change in MIC) [2]: 2.6

CC(C)(N)[C@H](NC(=O)c1ccc(C#CC#C[C@@H]2C[C@@H](O)[C@@H](O)C2)cc1)C(=O)NO [Compound 32, N—((S)-3-amino-1-(hydroxyamino)-3-methyl-1-oxobutan-2-yl)-4-(((1S,3R,4S)-3,4-dihydroxycyclopentyl)buta-1,3-diynyl)benzamide]
MIC [1, 3]: 1 to 8 µg/mL (≈ 2.5 to 20 µM)
MIC [1, 4]: < 1 µg/mL
MIC [1, 5]: < 1 µg/mL
Protein Binding PB (Geomean of fold change in MIC) [2]: 5.5

CC(C)(NCCO)[C@H](NC(=O)c1ccc(C#CC#CCCO)cc1)C(=O)NO [Compound 11, (S)—N-(1-(hydroxyamino)-3-(2-hydroxyethylamino)-3-methyl-1-oxobutan-2-yl)-4-(6-hydroxyhexa-1,3-diynyl)benzamide]
MIC [1, 3]: 1 to 8 µg/mL (≈ 2.58 to 20.6 µM)
MIC [1, 4]: < 1 µg/mL
MIC [1, 5]: < 1 µg/mL
Protein Binding PB (Geomean of fold change in MIC) [2]: 1.5

CC(C)(N)[C@H](NC(=O)c1ccc(C#CC#C[C@H](O)CO)cc1)C(=O)NO [Compound 61, N—((S)-3-amino-1-(hydroxyamino)-3-methyl-1-oxobutan-2-yl)-4-((S)-5,6-dihydroxyhexa-1,3-diyn-1-yl)benzamide]
MIC [1, 3]: 1 to 8 µg/mL (≈ 2.78 to 22.3 µM)
MIC [1, 4]: < 1 µg/mL
MIC [1, 5]: < 1 µg/mL
Protein Binding PB (Geomean of fold change in MIC) [2]: 1.6

CC(C)(N)[C@H](NC(=O)c1ccc(C#CC#CC2C[C@H](O)[C@@H]2CO)cc1)C(=O)NO (single isomer, unassigned) [Compound 30A]
Minimum Inhibitory Concentrations (MICs) APAE1096 ([1]; APAE1096 is a clinical isolate, broth microdilution): C (C = MIC's of greater than 8.0 μg/mL to 16.0 μg/mL)
MIC [1, 4]: < 1 µg/mL
MIC [1, 5]: < 1 µg/mL
Protein Binding PB (Geomean of fold change in MIC) [2]: 2.5

Cc1cc(CNC(C)(C)[C@H](NC(=O)c2ccc(C#CC#CCCO)cc2)C(=O)NO)no1 [Compound 12, (S)—N-(1-(hydroxyamino)-3-methyl-3-((5-methylisoxazol-3-yl)methylamino)-1-oxobutan-2-yl)-4-(6-hydroxyhexa-1,3-diynyl)benzamide]
MIC [1, 3]: 8 to 16 µg/mL (≈ 18.2 to 36.5 µM)
MIC [1, 4]: 1 to 8 µg/mL (≈ 2.28 to 18.2 µM)
MIC [1, 5]: 1 to 8 µg/mL (≈ 2.28 to 18.2 µM)
Protein Binding PB (Geomean of fold change in MIC) [2]: 2.9

CC(C)(N)[C@H](NC(=O)c1ccc(C#CC#CCC(O)CO)cc1)C(=O)NO (stereo partly drawn) [Compound 21, N—((S)-3-amino-1-(hydroxyamino)-3-methyl-1-oxobutan-2-yl)-4-(6,7-dihydroxyhepta-1,3-diynyl)benzamide]
MIC [1, 3]: 1 to 8 µg/mL (≈ 2.68 to 21.4 µM)
MIC [1, 4]: 1 to 8 µg/mL (≈ 2.68 to 21.4 µM)
MIC [1, 5]: 1 to 8 µg/mL (≈ 2.68 to 21.4 µM)
Protein Binding PB (Geomean of fold change in MIC) [2]: 1.9

CC(C)(N)[C@H](NC(=O)c1ccc(C#CC#CC(O)(CO)CCl)cc1)C(=O)NO (stereo partly drawn) [Compound 19, N—((S)-3-amino-1-(hydroxyamino)-3-methyl-1-oxobutan-2-yl)-4-(6-chloro-5-hydroxy-5-(hydroxymethyl)hexa-1,3-diynyl)benzamide]
MIC [1, 3]: 1 to 8 µg/mL (≈ 2.45 to 19.6 µM)
MIC [1, 4]: 1 to 8 µg/mL (≈ 2.45 to 19.6 µM)
MIC [1, 5]: < 1 µg/mL
Protein Binding PB (Geomean of fold change in MIC) [2]: 1.0

CNC(C)(C)[C@H](NC(=O)c1ccc(C#CC#CC(O)CO)cc1)C(=O)NO (stereo partly drawn) [Compound 51, 4-(5,6-dihydroxyhexa-1,3-diyn-1-yl)-N—((S)-1-(hydroxyamino)-3-methyl-3-(methylamino)-1-oxobutan-2-yl)benzamide]
MIC [1, 3]: 1 to 8 µg/mL (≈ 2.68 to 21.4 µM)
MIC [1, 4]: < 1 µg/mL
MIC [1, 5]: < 1 µg/mL
Protein Binding PB (Geomean of fold change in MIC) [2]: 1.6

C[C@@H](CO)[C@H](O)C#CC#Cc1ccc(C(=O)N[C@H](C(=O)NO)C(C)(C)N)cc1 [Compound 53, N—((S)-3-amino-1-(hydroxyamino)-3-methyl-1-oxobutan-2-yl)-4-((5S,6S)-5,7-dihydroxy-6-methylhepta-1,3-diyn-1-yl)benzamide]
MIC [1, 3]: 8 to 16 µg/mL (≈ 20.6 to 41.3 µM)
MIC [1, 4]: 1 to 8 µg/mL (≈ 2.58 to 20.6 µM)
MIC [1, 5]: 1 to 8 µg/mL (≈ 2.58 to 20.6 µM)
Protein Binding PB (Geomean of fold change in MIC) [2]: 2.0
